Consider 19 compounds from US20230192626A1 (Baylor College of Medicine, priority 2020, published 2023).

This test deals with T1, Human sEH (hsEH) (Homo sapiens, UniProt P34913).
T1 construct: purchased Cayman Chemicals
T1 sequence (P34913 1-555): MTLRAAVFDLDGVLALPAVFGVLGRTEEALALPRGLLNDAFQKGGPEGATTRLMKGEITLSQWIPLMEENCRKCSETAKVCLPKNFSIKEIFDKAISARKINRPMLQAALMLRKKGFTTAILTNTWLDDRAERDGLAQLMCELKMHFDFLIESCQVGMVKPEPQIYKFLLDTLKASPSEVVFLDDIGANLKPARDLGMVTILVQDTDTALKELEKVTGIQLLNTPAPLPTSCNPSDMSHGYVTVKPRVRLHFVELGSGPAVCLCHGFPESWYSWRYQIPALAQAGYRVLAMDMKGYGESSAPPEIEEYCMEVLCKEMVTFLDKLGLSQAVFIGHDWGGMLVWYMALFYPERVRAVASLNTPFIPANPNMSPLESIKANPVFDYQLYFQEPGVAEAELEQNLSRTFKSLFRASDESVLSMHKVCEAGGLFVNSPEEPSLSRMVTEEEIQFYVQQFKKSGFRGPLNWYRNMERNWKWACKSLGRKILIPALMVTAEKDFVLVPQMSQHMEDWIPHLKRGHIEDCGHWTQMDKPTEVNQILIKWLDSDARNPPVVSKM
Kind of test: fluorescence-based sEH biochemical inhibition assay (PHOME substrate). Particulars: Table 1; hsEH 5 nM, PHOME 50 μM, 30° C. On the procedure:
The benzimidazole-based compounds synthesized according to Example 1 were measured for activity. Using a fluorescence-based sEH biochemical inhibition assay, the IC50 value was measured for each benzimidazole-based compound. Human sEH (hsEH) and its substrate PHOME were purchased from Cayman Chemicals. IC50 values of hsEH inhibitors were determined by fluorescence. IC50 is defined as the concentration of the inhibitor that blocks 50% of the enzymatic activity. To a 96-well plate containing 10 μL enzyme (5 nM in water), 60 μL of H2O and 10 μL BisTris-HCl buffer (25 mM, pH 7.0) were added inhibitors with different concentrations. The mixture was incubated for 5 min at 30° C. prior to addition of 10 μL of PHOME substrate (50 μM). Fluorescence were measured at 30° C. with an excitation wavelength of 330 nm and an emission wavelength of 465 nm using a BioTek H1 plate reader. The IC50 values were calculated by non-linear regression fitting. The curve was generated from at least three separate runs, each in duplicates. Results are given as means and standard deviations. In Table 1, an IC50 value less than or equal to 1 μM is indicated as an “A.” an IC50 value from greater than 1 μM to less than 10 μM is indicated as a “B′” and an IC50 value of greater than or equal to 10 μM is indicated as a “C.”
Additional benzimidazole-based compounds as described herein were measured for activity according to the procedure outlined in Example 2. Briefly, using a fluorescence-based sEH biochemical inhibition assay, the IC50 value was measured for each benzimidazole-based compound.

Usually IC50 stands for the midpoint of a concentration-inhibition curve. In the case of `Cc1cc2nc(Oc3ccc(Br)cc3)[nH]c2cc1C` [Compound 11, 2-(4-bromophenoxy)-5,6-dimethyl-1H-benzo[d]imidazole], the IC50 was not below 10 µM.

In the case of `O=C(Nc1cc(C(F)(F)F)cc(C(F)(F)F)c1)Nc1nc2ccccc2[nH]1` [Compound 14, 1-(1H-benzo[d]imidazol-2-yl)-3-(3,5-bis(trifluoromethyl)phenyl)urea], the IC50 was not below 10 µM. For `Fc1cc2nc(-c3ccoc3)[nH]c2cc1F` [Compound 32, 5,6-difluoro-2-(furan-3-yl)-1H-benzo[d]imidazole], the IC50 is not below 10 µM.

As to `FC(F)(F)c1ccc(-c2nc3cc(Cl)c(Cl)cc3[nH]2)cc1` [Compound 34, 5,6-dichloro-2-(4-(trifluoromethyl)phenyl)-1H-benzo[d]imidazole], the 50% inhibitory concentration (IC50) lay in the range of 1 to 10 µM. With `CCc1ccc(-c2nc3ccccc3[nH]2)cc1` [Compound 37, 2-(4-ethylphenyl)-1H-benzo[d]imidazole], the IC50 was in the range of 1 to 10 µM.

As to `Fc1ccc2[nH]c(-c3ccc(-c4ccccc4)cc3)nc2c1F` [Compound 49, 2-([1,1′-biphenyl]-4-yl)-4,5-difluoro-1H-benzo[d]imidazole], the IC50 was not below 10 µM. `COc1ccc(Nc2nc3cc(C)c(C)cc3[nH]2)cc1OC` [Compound 7, N-(3,4-dimethoxyphenyl)-5,6-dimethyl-1H-benzo[d]imidazol-2-amine] showed an IC50 of 1 to 10 µM. Turning to `CCCN(CCC)S(=O)(=O)c1ccc(-c2nc3cc(C)c(C)cc3[nH]2)cc1` [Compound 3, 4-(5,6-dimethyl-1H-benzo[d]imidazol-2-yl)-N,N-dipropylbenzenesulfonamide], the IC50 lay within 1 to 10 µM. `Cc1cc2nc(-c3ccccn3)[nH]c2cc1C` [Compound 25, 5,6-dimethyl-2-(pyridin-2-yl)-1H-benzo[d]imidazole] displayed an IC50 not below 10 µM. In turn, `Cc1cc2nc(Nc3ccc(C(C)(C)C)cc3)[nH]c2cc1C` [Compound 6, N-(4-(tert-butyl)phenyl)-5,6-dimethyl-1H-benzo[d]imidazol-2-amine] displayed an IC50 of 1 to 10 µM. The result for `Cc1cc2nc(-c3cccc(C(C)(C)C)c3)[nH]c2cc1C` [Compound 27, 2-(3-(tert-butyl)phenyl)-5,6-dimethyl-1H-benzo[d]imidazole] reads not above 1 µM; that for `Oc1ccc(-c2nc3cc(F)c(F)cc3[nH]2)cc1` [Compound 33, 4-(5,6-difluoro-1H-benzo[d]imidazol-2-yl)phenol], not below 10 µM; that for `FC(F)(F)c1ccc(-c2nc3cc(Br)c(Br)cc3[nH]2)cc1` [Compound 38, 5,6-dibromo-2-(4-(trifluoromethyl)phenyl)-1H-benzo[d]imidazole], not below 10 µM. `O=C(O)c1ccc(-c2nc3cc(F)c(F)cc3[nH]2)cc1` [Compound 56]: the IC50 is not above 1 µM.

The compound `CCc1ccc(-c2nc3cc(C)c(C)cc3[nH]2)cc1` [Compound 5, 2-(4-ethylphenyl)-5,6-dimethyl-1H-benzo[d]imidazole] returned a half-maximal inhibitory concentration (IC50) not above 1 µM.

As to `Cc1cc2nc(-c3ccc4ccccc4c3)[nH]c2cc1C` [Compound 28, 5,6-dimethyl-2-(naphthalen-2-yl)-1H-benzo[d]imidazole], the IC50 is not above 1 µM. Compound `Cc1cc2nc(-c3ccc(-c4ccccc4)cc3)[nH]c2cc1C` [Compound 20, 2-([1,1′-biphenyl]-4-yl)-5,6-dimethyl-1H-benzo[d]imidazole] gave an IC50 not above 1 µM. For the compound `Cc1cc2nc(Oc3ccc(OC(F)(F)F)cc3)[nH]c2cc1C` [Compound 12, 5,6-dimethyl-2-(4-(trifluoromethoxy)phenoxy)-1H-benzo[d]imidazole], the IC50 was not below 10 µM. With `Cc1cc2nc(Nc3ccc(OC(F)(F)F)cc3)[nH]c2cc1C` [Compound 4, 5,6-dimethyl-N-(4-(trifluoromethoxy)phenyl)-1H-benzo[d]imidazol-2-amine], the 50% inhibitory concentration (IC50) lay in the range of 1 to 10 µM.
